Residues, ends and D or L forms follow the SMILES beside them. *: point of attachment. Agmatine = N=C(N)NCCCCN*; PhAc = O=C(Cc1ccccc1)*
What was measured:
Furin = Furin (Homo sapiens, UniProt P09958)
[1] = target: T1, Proprotein convertase subtilisin/kexin type 6 (Homo sapiens, UniProt P29122); assay: Inhibition of human PACE4 expressed in Drosophila schneider 2 cells by fluorescence assay; format: cell-based
T1 sequence (P29122 whole entry): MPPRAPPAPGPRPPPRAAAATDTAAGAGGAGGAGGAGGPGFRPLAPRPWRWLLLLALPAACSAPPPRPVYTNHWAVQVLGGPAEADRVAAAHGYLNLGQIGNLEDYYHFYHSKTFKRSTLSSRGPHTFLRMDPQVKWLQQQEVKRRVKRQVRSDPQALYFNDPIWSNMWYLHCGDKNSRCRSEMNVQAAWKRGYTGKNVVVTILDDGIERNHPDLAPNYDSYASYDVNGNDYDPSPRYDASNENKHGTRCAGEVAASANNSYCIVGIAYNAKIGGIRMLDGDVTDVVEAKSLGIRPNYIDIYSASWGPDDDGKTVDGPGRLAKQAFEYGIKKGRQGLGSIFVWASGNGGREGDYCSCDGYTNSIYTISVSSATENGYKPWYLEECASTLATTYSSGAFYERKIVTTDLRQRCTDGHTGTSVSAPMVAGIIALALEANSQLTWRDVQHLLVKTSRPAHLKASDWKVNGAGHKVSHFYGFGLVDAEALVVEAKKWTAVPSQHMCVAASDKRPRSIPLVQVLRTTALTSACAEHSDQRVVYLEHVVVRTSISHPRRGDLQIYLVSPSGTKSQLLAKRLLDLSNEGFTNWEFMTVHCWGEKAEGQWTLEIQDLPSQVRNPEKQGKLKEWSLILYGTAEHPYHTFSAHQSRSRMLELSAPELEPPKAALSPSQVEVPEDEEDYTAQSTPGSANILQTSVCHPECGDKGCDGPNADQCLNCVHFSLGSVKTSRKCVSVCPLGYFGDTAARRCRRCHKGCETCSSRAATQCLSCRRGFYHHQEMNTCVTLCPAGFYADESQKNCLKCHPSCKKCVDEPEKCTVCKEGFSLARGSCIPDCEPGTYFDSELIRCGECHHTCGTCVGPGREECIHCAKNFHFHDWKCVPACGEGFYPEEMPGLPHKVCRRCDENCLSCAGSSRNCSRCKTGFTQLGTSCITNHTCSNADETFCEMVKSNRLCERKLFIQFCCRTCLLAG

[2] = target: Proprotein convertase subtilisin/kexin type 5 (Homo sapiens, UniProt Q92824); assay: Inhibition of human PC5/6 expressed in Drosophila schneider 2 cells by fluorescence assay; format: cell-based
Sequence of Proprotein convertase subtilisin/kexin type 5 (Q92824 whole entry): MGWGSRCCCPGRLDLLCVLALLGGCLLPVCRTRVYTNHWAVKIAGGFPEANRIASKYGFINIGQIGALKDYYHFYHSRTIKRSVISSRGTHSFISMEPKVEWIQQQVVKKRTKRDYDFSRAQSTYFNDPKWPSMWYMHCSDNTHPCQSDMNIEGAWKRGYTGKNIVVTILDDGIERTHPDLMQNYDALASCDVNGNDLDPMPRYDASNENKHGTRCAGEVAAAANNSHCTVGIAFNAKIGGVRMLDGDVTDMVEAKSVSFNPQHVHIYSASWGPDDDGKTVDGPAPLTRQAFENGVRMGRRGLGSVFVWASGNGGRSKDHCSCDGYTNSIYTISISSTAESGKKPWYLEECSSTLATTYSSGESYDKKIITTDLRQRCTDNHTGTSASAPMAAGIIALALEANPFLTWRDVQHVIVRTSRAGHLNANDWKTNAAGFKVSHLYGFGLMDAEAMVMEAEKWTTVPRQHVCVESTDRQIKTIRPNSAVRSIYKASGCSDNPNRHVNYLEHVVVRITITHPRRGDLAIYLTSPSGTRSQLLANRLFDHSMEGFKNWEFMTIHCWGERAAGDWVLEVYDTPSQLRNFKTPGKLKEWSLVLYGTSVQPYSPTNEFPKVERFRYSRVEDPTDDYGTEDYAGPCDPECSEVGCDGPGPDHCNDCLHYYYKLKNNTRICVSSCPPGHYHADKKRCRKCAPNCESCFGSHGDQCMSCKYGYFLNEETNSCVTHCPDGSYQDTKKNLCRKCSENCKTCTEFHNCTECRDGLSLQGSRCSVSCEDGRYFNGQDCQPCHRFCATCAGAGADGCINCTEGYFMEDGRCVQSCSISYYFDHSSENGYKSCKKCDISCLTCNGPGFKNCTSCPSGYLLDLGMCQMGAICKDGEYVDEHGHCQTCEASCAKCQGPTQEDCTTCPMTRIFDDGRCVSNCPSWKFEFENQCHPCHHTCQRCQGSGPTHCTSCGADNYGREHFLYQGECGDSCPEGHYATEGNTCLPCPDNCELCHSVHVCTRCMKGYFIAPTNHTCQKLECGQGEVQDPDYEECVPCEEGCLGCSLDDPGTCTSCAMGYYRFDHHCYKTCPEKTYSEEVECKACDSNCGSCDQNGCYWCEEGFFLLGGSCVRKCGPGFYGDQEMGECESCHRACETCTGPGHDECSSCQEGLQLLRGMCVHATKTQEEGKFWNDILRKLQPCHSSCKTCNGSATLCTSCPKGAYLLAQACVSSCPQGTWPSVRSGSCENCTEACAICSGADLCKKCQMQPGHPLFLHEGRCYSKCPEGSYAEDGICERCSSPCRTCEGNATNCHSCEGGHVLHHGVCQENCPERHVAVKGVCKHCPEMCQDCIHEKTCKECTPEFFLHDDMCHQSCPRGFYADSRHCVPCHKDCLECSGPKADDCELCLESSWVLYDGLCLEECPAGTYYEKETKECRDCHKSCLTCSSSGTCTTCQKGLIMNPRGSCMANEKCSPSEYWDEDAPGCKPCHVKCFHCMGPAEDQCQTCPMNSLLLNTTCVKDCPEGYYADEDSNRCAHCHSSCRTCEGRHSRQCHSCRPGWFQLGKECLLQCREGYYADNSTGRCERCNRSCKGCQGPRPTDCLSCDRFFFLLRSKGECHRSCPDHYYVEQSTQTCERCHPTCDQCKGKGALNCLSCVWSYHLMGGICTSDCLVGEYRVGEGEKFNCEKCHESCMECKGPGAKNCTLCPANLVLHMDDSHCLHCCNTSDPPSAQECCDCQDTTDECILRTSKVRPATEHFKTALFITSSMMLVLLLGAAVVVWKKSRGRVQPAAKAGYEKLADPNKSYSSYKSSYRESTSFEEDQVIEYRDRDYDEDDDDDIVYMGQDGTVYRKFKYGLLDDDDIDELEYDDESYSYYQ

[3] = target: T2, Proprotein convertase subtilisin/kexin type 7 (Homo sapiens, UniProt Q16549); assay: Inhibition of human PC7 expressed in Drosophila schneider 2 cells by fluorescence assay; format: cell-based
T2 sequence (Q16549 whole entry): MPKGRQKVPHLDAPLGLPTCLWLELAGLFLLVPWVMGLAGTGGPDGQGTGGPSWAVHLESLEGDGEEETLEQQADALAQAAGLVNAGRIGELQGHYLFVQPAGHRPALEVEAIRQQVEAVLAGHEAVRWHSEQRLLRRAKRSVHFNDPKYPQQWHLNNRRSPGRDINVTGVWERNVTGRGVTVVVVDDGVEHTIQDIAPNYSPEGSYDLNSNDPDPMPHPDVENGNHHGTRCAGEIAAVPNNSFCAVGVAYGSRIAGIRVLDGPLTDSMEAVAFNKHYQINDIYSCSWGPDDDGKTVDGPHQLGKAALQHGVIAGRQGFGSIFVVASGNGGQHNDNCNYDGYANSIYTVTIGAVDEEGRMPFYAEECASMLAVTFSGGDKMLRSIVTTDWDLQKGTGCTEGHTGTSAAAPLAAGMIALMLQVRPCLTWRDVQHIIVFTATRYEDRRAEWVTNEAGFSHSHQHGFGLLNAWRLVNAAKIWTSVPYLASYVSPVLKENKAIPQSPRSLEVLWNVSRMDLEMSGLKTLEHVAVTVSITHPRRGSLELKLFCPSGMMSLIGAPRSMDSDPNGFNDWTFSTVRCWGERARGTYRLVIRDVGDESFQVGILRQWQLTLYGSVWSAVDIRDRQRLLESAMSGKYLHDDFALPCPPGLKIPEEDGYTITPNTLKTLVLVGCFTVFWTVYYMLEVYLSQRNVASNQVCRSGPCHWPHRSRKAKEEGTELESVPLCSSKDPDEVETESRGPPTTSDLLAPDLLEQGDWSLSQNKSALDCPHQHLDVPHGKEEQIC

[4] = target: T3, Neuroendocrine convertase 1 (Homo sapiens, UniProt P29120); assay: Inhibition of human PC1/3 expressed in Drosophila schneider 2 cells by fluorescence assay; format: cell-based
T3 sequence (P29120 whole entry): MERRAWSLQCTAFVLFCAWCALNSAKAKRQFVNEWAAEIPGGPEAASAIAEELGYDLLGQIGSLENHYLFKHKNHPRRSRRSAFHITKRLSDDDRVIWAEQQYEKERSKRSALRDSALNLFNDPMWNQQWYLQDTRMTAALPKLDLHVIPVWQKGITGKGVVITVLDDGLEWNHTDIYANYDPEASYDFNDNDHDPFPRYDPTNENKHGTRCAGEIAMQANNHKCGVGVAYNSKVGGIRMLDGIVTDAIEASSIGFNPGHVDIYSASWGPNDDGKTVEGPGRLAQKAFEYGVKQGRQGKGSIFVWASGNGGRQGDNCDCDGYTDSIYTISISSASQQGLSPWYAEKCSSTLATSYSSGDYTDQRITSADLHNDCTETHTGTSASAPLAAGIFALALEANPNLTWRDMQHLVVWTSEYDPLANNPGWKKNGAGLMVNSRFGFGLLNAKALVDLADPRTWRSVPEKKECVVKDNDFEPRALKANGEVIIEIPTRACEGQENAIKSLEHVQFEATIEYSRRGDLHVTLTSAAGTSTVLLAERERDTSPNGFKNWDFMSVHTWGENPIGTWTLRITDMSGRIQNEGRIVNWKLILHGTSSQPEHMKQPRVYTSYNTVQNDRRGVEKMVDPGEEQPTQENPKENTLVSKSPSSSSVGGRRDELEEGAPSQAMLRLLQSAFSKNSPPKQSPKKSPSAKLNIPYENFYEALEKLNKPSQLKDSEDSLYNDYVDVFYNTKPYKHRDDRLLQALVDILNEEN

[5] = target: T4, Neuroendocrine convertase 2 (Homo sapiens, UniProt P16519); assay: Inhibition of human PC2 expressed in Drosophila schneider 2 cells by fluorescence assay; format: cell-based
T4 sequence (P16519 whole entry): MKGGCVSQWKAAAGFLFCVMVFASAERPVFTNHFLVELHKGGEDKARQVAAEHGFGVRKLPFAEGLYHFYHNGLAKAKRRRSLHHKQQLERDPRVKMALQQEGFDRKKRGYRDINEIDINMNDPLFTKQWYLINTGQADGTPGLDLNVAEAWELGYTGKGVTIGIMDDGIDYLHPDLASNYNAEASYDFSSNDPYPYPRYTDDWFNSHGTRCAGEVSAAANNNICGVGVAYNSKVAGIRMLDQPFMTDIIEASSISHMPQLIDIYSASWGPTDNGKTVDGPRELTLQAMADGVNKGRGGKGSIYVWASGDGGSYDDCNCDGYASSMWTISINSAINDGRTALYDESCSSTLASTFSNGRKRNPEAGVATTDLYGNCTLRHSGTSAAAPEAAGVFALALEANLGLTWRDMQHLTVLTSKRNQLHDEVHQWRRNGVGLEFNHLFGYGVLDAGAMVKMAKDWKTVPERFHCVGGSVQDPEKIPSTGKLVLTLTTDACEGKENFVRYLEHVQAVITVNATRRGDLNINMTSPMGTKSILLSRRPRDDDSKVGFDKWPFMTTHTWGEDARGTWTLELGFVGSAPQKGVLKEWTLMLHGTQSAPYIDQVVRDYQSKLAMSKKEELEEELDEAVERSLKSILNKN

Prothrombin = Prothrombin (Homo sapiens, UniProt P00734); assay: Inhibition of thrombin
Coagulation factor X = Coagulation factor X (Homo sapiens, UniProt P00742); assay: Inhibition of factor 10a
Sequence of Coagulation factor X (P00742 41-179 limits assumed): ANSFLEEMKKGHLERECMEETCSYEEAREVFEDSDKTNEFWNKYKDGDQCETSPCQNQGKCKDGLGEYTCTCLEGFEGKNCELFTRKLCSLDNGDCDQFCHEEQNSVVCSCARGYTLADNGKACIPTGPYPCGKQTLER
Sequence of Coagulation factor X (P00742 235-488 limits assumed): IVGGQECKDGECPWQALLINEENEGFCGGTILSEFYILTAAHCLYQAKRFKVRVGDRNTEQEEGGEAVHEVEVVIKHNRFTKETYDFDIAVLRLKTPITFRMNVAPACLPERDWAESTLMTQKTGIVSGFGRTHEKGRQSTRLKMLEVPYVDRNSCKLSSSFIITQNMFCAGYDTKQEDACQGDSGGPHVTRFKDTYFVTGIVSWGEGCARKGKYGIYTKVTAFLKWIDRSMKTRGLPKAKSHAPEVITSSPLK

Plasminogen = Plasminogen (Homo sapiens, UniProt P00747); assay: Inhibition of plasmin
Sequence of Plasminogen (P00747 97-580 limits assumed): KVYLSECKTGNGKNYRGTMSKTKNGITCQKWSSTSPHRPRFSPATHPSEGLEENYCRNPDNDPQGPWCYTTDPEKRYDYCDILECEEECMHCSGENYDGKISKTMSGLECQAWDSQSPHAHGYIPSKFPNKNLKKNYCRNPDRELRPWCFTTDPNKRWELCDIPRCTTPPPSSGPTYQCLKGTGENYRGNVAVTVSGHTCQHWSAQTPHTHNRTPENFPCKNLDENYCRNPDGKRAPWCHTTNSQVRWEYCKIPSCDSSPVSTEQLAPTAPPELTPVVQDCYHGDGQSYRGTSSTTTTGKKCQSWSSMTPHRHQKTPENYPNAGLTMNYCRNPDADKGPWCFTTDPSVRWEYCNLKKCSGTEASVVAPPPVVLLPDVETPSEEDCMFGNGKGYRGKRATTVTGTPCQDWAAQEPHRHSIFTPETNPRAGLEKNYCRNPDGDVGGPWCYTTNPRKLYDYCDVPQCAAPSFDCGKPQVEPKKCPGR
Sequence of Plasminogen (P00747 581-810 limits assumed): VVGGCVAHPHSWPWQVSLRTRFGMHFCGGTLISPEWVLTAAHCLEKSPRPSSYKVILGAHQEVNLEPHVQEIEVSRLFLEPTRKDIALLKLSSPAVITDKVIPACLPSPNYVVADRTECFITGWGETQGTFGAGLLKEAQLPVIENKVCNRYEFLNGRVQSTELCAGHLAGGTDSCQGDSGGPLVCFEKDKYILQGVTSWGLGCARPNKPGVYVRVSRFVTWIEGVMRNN

cells = format: cell-based; conditions: Canis lupus familiaris, MDCK

Sequence of Furin (P09958 whole entry): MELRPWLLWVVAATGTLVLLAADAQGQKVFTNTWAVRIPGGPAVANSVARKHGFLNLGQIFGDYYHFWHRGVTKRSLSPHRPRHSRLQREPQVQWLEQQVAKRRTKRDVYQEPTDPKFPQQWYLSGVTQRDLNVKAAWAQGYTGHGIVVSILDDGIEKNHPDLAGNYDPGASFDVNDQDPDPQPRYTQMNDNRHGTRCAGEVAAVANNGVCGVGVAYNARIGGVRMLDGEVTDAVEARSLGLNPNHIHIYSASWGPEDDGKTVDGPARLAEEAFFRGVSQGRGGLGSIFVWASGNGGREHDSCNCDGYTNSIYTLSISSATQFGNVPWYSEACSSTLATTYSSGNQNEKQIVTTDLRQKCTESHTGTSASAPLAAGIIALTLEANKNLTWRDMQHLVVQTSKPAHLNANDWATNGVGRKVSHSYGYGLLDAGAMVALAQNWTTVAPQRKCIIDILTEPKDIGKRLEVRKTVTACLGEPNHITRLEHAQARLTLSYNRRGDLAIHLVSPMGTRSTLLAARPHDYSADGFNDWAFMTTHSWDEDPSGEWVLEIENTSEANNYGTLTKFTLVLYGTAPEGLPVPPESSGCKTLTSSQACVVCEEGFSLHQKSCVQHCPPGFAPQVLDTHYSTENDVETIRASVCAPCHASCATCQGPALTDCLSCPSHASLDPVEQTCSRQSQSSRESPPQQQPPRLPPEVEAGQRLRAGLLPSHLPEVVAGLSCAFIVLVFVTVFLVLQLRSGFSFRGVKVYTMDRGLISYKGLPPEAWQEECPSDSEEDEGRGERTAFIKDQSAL

SMILES | Ki (Furin) [µM] | Ki [1] [µM] | Ki [2] [µM] | Ki [3] [µM] | Ki [4] [µM] | Ki [5] [µM] | other results
CCCCCCCCCC(=O)N[C@@H](CCCN=C(N)N)C(=O)N[C@H](C(=O)N[C@@H](CCCCN)C(=O)NCc1ccc(C(=N)N)cc1)C(C)C | 0.0033 | – | – | – | – | – | –
CC(C)[C@H](NC(=O)[C@H](CCCNC(=N)N)NC(=O)Cc1ccccc1)C(=O)N[C@@H](CCCNC(=N)N)C(=O)NCc1ccc(C(=N)N)cc1 | – | 0.0006 | 0.0016 | 6.15 | 0.00075 | 0.312 | Ki (Prothrombin): 23 µM; Ki (Coagulation factor X): 40 µM; Ki (Plasminogen): 6 µM; IC50 (cells): 10 µM
CC(C)[C@H](NC(=O)[C@H](CCCN=C(N)N)NC(=O)Cc1ccccc1)C(=O)N[C@@H](CCCN=C(N)N)C(=O)NCc1cccc(CN=C(N)N)c1 | 2.73 | – | – | – | – | – | –
CC(C)[C@H](NC(=O)[C@H](CCCN=C(N)N)NC(=O)Cc1ccccc1)C(=O)N[C@@H](CCCN=C(N)N)C(=O)NCc1ccc(CN=C(N)N)cc1 | 1.43 | – | – | – | – | – | –
CC(C)[C@H](NC(=O)[C@H](CCCNC(=N)N)NC(=O)Cc1ccccc1)C(=O)N[C@@H](CCCNC(=N)N)C(=O)NCC1CCN(C(=N)N)CC1 | 0.053 | 0.067 | 0.173 | > 10 | 0.07 | > 10 | Ki (Prothrombin): 50 µM; Ki (Coagulation factor X): 123 µM; Ki (Plasminogen): > 1000 µM
CC(C)[C@H](NC(=O)[C@H](CCCN=C(N)N)NC(=O)Cc1ccccc1)C(=O)N[C@@H](CCCN=C(N)N)C(=O)NCc1cccc(CN)c1 | 1.32 | – | – | – | – | – | –
CCCCCCCCCC(=O)N[C@@H](CCCN=C(N)N)C(=O)N[C@H](C(=O)N[C@@H](CCCN=C(N)N)C(=O)NCc1ccc(C(=N)N)cc1)C(C)C | 0.0016 | 0.003 | 0.0063 | 0.968 | 0.00365 | 0.055 | –
CC(C)[C@H](NC(=O)[C@H](CCCNC(=N)N)NC(=O)Cc1ccccc1)C(=O)N[C@@H](CCCNC(=N)N)C(=O)NCCCCCN | 0.553 | – | – | – | – | – | –
CC(C)[C@H](NC(=O)[C@H](CCCN=C(N)N)NC(=O)Cc1ccccc1)C(=O)N[C@@H](CCCN=C(N)N)C(=O)NCCCN=C(N)N | 0.063 | – | – | – | – | – | –
CC(C)[C@H](NC(=O)[C@H](CCCN=C(N)N)NC(=O)Cc1ccccc1)C(=O)N[C@@H](CCCN=C(N)N)C(=O)NCCCCN | 7.49 | – | – | – | – | – | –
CC(C)[C@H](NC(=O)[C@H](CCCN=C(N)N)NC(=O)Cc1ccccc1)C(=O)N[C@@H](CCCN=C(N)N)C(=O)NCCCCCN=C(N)N | 1.07 | – | – | – | – | – | –
CC(C)[C@H](NC(=O)[C@H](CCCN=C(N)N)NC(=O)Cc1ccccc1)C(=O)N[C@@H](CCCN=C(N)N)C(=O)NCC1CCNCC1 | 9.71 | – | – | – | – | – | –
CC(=O)N[C@@H](CCCNC(=N)N)C(=O)N[C@H](C(=O)N[C@@H](CCCNC(=N)N)C(=O)NCc1ccc(C(=N)N)cc1)C(C)C | 0.001 | 0.0024 | 0.0036 | 5.13 | 0.0017 | 1.39 | –
CC(C)[C@H](NC(=O)[C@H](CCCNC(=N)N)NC(=O)Cc1ccccc1)C(=O)N[C@@H](CCCNC(=N)N)C(=O)NCCCN | 3.02 | – | – | – | – | – | –
CC(C)[C@H](NC(=O)[C@H](CCCNC(=N)N)NC(=O)Cc1ccccc1)C(=O)N[C@@H](CCCNC(=N)N)C(=O)NCc1ccc(CN)cc1 | 0.627 | – | – | – | – | – | –
CC(C)[C@H](NC(=O)[C@H](CCCNC(=N)N)NC(=O)Cc1ccccc1)C(=O)N[C@@H](CCCNC(=N)N)C(=O)NCCCCNC(=N)N (PhAc-Arg-Val-Arg-Agmatine) | 0.078 | 0.042 | 0.085 | > 10 | 0.053 | > 10 | Ki (Prothrombin): 102 µM; Ki (Coagulation factor X): 83 µM; Ki (Plasminogen): 97 µM

From ChEMBL document CHEMBL1156804, “Potent inhibitors of furin and furin-like proprotein convertases containing decarboxylated P1 arginine mimetics” (J Med Chem, 2010)
